From the supplement of paper PMC10307832

Columns and labels:
Test in all cases: relative viability (nuclei count vs DMSO), 5 days (fraction); higher = more cells survive
RO-3306 + Palbociclib = compound: C1=CC2=C(C=CC(=C2)C=C3C(=O)NC(=NCC4=CC=CS4)S3)N=C1 [RO-3306] + CC(=O)c1c(C)c2cnc(Nc3ccc(N4CCNCC4)cn3)nc2n(C2CCCC2)c1=O [Palbociclib] (partner 0.5 µM)
Outline: (§1)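 Lung cancer cell lines in 1536-well plates were dosed by pin tool the day after seeding, either with one drug alone or with a fixed anchor-drug dose plus five library-drug doses (not always all listed) in √10 steps. After 5 days, cells were fixed and their nuclei stained in one step (final 0.05% Triton X-100, 1% formaldehyde, 1 ug/ml Hoechst), then counted on 4× images. Relative viability is the nuclei count in treated wells divided by that in vehicle wells. Values are medians of duplicate plates.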

RO-3306 + Lapatinib = compound: C1=CC2=C(C=CC(=C2)C=C3C(=O)NC(=NCC4=CC=CS4)S3)N=C1 [RO-3306] + CS(=O)(=O)CCNCc1ccc(-c2ccc3ncnc(Nc4ccc(OCc5cccc(F)c5)c(Cl)c4)c3c2)o1 [Lapatinib] (partner 2 µM)
Outline: as §1

[1] = compound: O=S(=O)(c1ccccc1)N(CC(F)(F)F)c1ccc(C(O)(C(F)(F)F)C(F)(F)F)cc1 + CC(C)C[C@H](NC(=O)[C@H](Cc1ccccc1)NC(=O)c1cnccn1)B(O)O [Bortezomib] (partner 0.002 µM)
Outline: as §1

[2] = compound: O=S(=O)(c1ccccc1)N(CC(F)(F)F)c1ccc(C(O)(C(F)(F)F)C(F)(F)F)cc1 + CS(=O)(=O)CCNCc1ccc(-c2ccc3ncnc(Nc4ccc(OCc5cccc(F)c5)c(Cl)c4)c3c2)o1 [Lapatinib] (partner 2 µM)
Outline: as §1

[3] = compound: O=S(=O)(c1ccccc1)N(CC(F)(F)F)c1ccc(C(O)(C(F)(F)F)C(F)(F)F)cc1 + CS(=O)(=O)N1CCN(Cc2cc3nc(-c4cccc5[nH]ncc45)nc(N4CCOCC4)c3s2)CC1 [Pictilisib] (partner 1 µM)
Outline: as §1

Cell Line	relative viability (RO-3306 + Palbociclib; first compound 0.01 µM)	relative viability (RO-3306 + Palbociclib; first compound 0.03162 µM)	relative viability (RO-3306 + Palbociclib; first compound 0.1 µM)	relative viability (RO-3306 + Palbociclib; first compound 0.3162 µM)	relative viability (RO-3306 + Palbociclib; first compound 1 µM)	relative viability (RO-3306 + Lapatinib; first compound 0.01 µM)	relative viability (RO-3306 + Lapatinib; first compound 0.03162 µM)	relative viability (RO-3306 + Lapatinib; first compound 0.1 µM)	relative viability (RO-3306 + Lapatinib; first compound 0.3162 µM)	relative viability (RO-3306 + Lapatinib; first compound 1 µM)	relative viability ([1]; first compound 0.8 µM)	relative viability ([1]; first compound 2.53 µM)	relative viability ([1]; first compound 8 µM)	relative viability ([2]; first compound 0.8 µM)	relative viability ([2]; first compound 2.53 µM)	relative viability ([2]; first compound 8 µM)	relative viability ([3]; first compound 0.8 µM)	relative viability ([3]; first compound 2.53 µM)	relative viability ([3]; first compound 8 µM)
NCI-H1915	0.54	0.523	0.518	0.539	0.538	1.07	0.973	0.969	0.945	0.446	1.08	0.964	0.974	1.05	0.995	1.02	0.965	1.1	1.13
LU99A	0.438	0.418	0.425	0.374	0.386	1.2	0.971	0.915	0.789	0.914	1.34	1.17	1.16	1.11	1.05	0.901	0.296	0.293	0.271
NCI-H1975	0.614	0.453	0.581	0.549	0.553	1.05	0.559	0.787	0.919	0.752	0.327	0.415	0.299	1.32	0.99	1.01	0.28	0.264	0.249
NCI-H2228	0.753	0.404	0.622	0.771	0.433	1.24	0.574	0.942	0.826	0.542	1.13	0.872	0.906	1.32	0.964	1.5	0.414	0.366	0.26
NCI-H2009	0.216	0.203	0.18	0.25	0.203	0.805	0.887	0.867	1.07	0.872	0.91	0.891	0.929	0.922	0.804	0.844	0.814	0.751	0.783
COR-L 105	0.392	0.408	0.412	0.404	0.385	0.34	0.351	0.334	0.333	0.314	0.846	0.75	0.702	0.377	0.386	0.371	0.44	0.397	0.418
NCI-H3122	0.188	0.18	0.19	0.199	0.209	1.1	1	1.02	0.997	0.827	0.989	0.963	0.907	0.975	0.897	1.03	0.477	0.447	0.416
CAL-12T	0.67	0.396	0.385	0.388	0.475	0.61			0.73	0.591		0.964	0.958		0.531	0.592		0.342	0.542
NCI-H1355	0.421	0.406	0.405	0.412	0.38	1.15	0.926	0.973	1.04	0.886	1.39	1.12	1.1	1.04	0.961	0.926	0.415	0.389	0.491
